Target: T1, Aster-A (Homo sapiens, UniProt Q96CP6)
T1 construct: endogenous in cells; host or cells: Jurkat cells
T1 sequence (Q96CP6 1-724): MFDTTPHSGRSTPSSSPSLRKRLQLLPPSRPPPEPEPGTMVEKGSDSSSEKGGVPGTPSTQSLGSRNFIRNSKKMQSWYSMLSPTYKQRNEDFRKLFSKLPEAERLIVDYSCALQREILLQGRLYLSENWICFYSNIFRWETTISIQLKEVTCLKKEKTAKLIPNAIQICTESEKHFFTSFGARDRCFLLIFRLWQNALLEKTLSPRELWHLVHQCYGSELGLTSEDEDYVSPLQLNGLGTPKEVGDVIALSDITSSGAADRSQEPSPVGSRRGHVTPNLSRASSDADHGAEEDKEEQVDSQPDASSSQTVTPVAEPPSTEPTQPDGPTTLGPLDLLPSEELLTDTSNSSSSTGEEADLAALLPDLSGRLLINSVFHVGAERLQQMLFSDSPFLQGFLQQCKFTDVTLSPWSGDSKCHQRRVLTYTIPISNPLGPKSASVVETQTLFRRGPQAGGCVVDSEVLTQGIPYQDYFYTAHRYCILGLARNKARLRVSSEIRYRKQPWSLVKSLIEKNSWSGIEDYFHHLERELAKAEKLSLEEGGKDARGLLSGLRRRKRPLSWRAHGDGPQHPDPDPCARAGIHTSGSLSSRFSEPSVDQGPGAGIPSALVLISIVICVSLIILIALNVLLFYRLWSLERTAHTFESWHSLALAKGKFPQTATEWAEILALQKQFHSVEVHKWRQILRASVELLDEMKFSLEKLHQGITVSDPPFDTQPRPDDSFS
Assay: In-cell isothermal shift assay in intact Jurkat cells
Assay type: cell-based
Details: 10 μM, 1 h, heated to 50 °C, Western blot
Description: Jurkat cells were cultured in RPMI 1640 GlutaMAX supplemented with 10% fetal bovine serum and 1% penicillin-streptomycin at 37 °C, 5% CO2.
In-cell thermal stability assay
To a 15 mL falcon tube were added 3 × 10^5 Jurkat cells in media and centrifuged at 300 × g for three minutes. The supernatant was aspirated, and the cells were resuspended in 4 mL media containing 0.1% DMSO. The cells were gently vortexed to avoid pelleting at 30 minutes intervals. After 1 h incubation at 37 °C and 5% CO2, the cells were washed twice with PBS and collected in 0.9 mL PBS and divided into eight aliquots, each 100 µL in PCR tubes. The aliquots were individually heated at different temperatures (Doppio 2 × 48 well Thermal cycler, VWR). After the heat treatment, 10 µL of PBS containing 4.4 %v/v NP-40 was added to each sample and cells were lysed by freeze-thaw four times. The cell lysates were transferred to 1.5 mL Eppendorf tubes and cen trifuged (Micro Star 30, VWR) at 25000 × g, 4 °C for 25 minutes. The cleared supernatants were collected and further analy sed […]
In-cell isothermal shift assay
To eight 15 mL falcon tubes were added 3 × 10^5 Jurkat cells in 1 mL of media per tube and incubated with indicated test compounds for one hour at 37 °C and 5% CO2. The cells were gently vortexed to avoid pelleting at 30 minutes intervals. After one hour incubation at 37 °C and 5% CO2, the cells were centrifuged at 300 × g for three minutes, washed once with PBS and centrifuged again at 300 × g for three minutes. The cells were then resuspended in 50 µL of PBS in PCR tubes. The samples were then heated at the given temperature (Eppendorf Mastercycler ep Gradie nt S). After the heat treatment, 5 µL of PBS containing 4.4 %v/v NP-40 were added to each sample and cells lysed by freeze-thaw four times. Finally, the cell lysates were completely transferred to 1.5 mL Eppendorf tubes and centrifuged (Micro Star 30, VMR) at 25000 × g, 4 °C for 25 minutes. The cleared supernatants were collected and further analysed by western blotting.
Sodium dodecyl sulfate-polyacrylamide gel electrophoresis and western blotting Sodium dodecyl sulfate-polyacrylamide gel electrophoresis (SDS-PAGE) experiments were carried out using 4-15% precast polyacrylamide gels (Bio-Rad) and run at a constant voltage of 100 V for ten minutes followed by 120 V for one hour. Semidry transfer onto a 0.2 µm nitrocellulose membrane was performed using Bio-Rad Trans-Blot Turbo Transfer System at 1.3 A for seven minutes. For chemiluminescent detection, membranes were blocked in 5% milk in TBST (tris -buffered saline with Tween; 137 mM NaCl, 19 mM Tris-base, 2.7 mM KCl and 0.1 %v/v Tween-20, blocking buffer) for one houre at room temperature. […]
Western blot quantification was performed using LI-COR Image Studio Lite. […]

Structure (SMILES) | Stabilization of Aster-A toward thermal unfolding in intact Jurkat cells
CC12CCC3CC1CCC21C(=Nc2ccc(N4CCOCC4)cc21)O3 (single isomer, unassigned; (-)) [(−)-19a] | showed stabilization of Aster-A
CC(C)Oc1ccc(C(=O)Nc2nc3c(s2)CN(C(=O)OC(C)(C)C)CC3)cc1 [Autogramin-2, reference compound] | showed stabilization of Aster-A
C[C@]12CC[C@@H]3C[C@H]1CC[C@@]21C(=Nc2ccc(C(F)(F)F)cc21)O3 [Compound 15g] | showed stabilization of Aster-A
CC(C)(C)OC(=O)N1CCN(c2ccc3c(c2)C24CCC5CC(CCC52C)OC4=N3)CC1 (stereo not shown) [Compound 19e] | increased stabilization of Aster-A in intact cells
